Reference: publication PMC9232612, “A phase 1b randomised controlled trial of a glucagon-like peptide-1 and glucagon receptor dual agonist IBI362 (LY3305677) in Chinese patients with type 2 diabetes” (Nature Communications, 2022)
Several values for one entry are separate records, joined by “and”; a condition that tells them apart may be missing. Identical values can stand only once.

What was measured:
Assay type in all cases: in vivo, human
[1] = Body-mass index (BMI); conditions: mean
Description: (§1) Exploratory outcomes included change from baseline in body weight, waist circumference, body-mass index (BMI) and change in homeostatic model assessment of β-cell function (HOMA-β) and insulin resistance (HOMA-IR).

[2] = Waist circumference; conditions: for Change from baseline to week 12 in waist circumference, individual: single patients
Description: as §1

[3] = test system: Chinese patients with T2D; test: Homeostatic model assessment of insulin resistance (HOMA-IR); conditions: for Change from baseline to week 12 in HOMA-IR, individual: single patients
Description: as §1

[4] = test system: Chinese patients with T2D; test: Mixed-meal tolerance test (MTT): insulin
Method: (§2) HbA1c (2200101, Bio-Rad, USA), blood glucose (05168791190, Roche Diagnostics, Germany), insulin (12017547122, Roche Diagnostics, Germany), C peptide (03184897190, Roche Diagnostics, Germany), total GLP-1 (GLP-1 [7–36] amide and its metabolite, GLP-1 [9–36] amide, 10-1278-01, Mercodia AB, Sweden) and OXM (AL-139, AnshLabs, USA) tests were performed according to the manufactures’ instruction manuals in a central laboratory (KingMed Diagnostics, Guangzhou, China). HbA1c was measured using a Bio-rad D-100 Haemoglobin Testing System (Bio-rad). Blood glucose was measured using a Roche Cobas c702 analyser (Roche Diagnostics). Insulin and C peptide were measured using a Roche […] analyser (Roche Diagnostics). GLP-1 and OXM were measured using a Tecan Infinite M Plex microplate reader (TECAN).
Standard non-compartmental pharmacokinetics methods were used to analyze IBI362 plasma concentration data using Pkanalix 2020R1 (Lixoft, Antony, France). Secondary efficacy outcomes included change from baseline to week 12 in HbA1c, fasting plasma glucose (FPG), fasting insulin levels, change from baseline to week 12 in post-mixed-meal tolerance test (post-MTT) glucose, insulin, C peptide, GLP-1 and OXM levels, as well as seven-point self-measured blood glucose (SMBG) profile. […]
(§3) 3. Standard meal test (MTT) collection measures included: insulin, C-peptide, plasma glucose, glucagon, endogenous OXM, and endogenous GLP-1. The sampling points include: fasting, 30 min, 1h, 2h, 3h and 4h.
(§4) A total of 9 mL blood will be collected from each blood collection point. See the manual of the central laboratory for the detailed operation process. Fasting state refers to fasting for 10 hours. [ The standard meal is
(§5) instant noodles. The master Kang roast beef noodles (bucket noodles) purchased by the sponsor in a unified manner are removed from the oil bag. The noodles are soaked in boiled water and then removed. The seasoning
(§6) bag is added and mixed well. The time is counted from the first bite of eating. The noodles are eaten within 10 minutes, and 200 mL of water is drunk; or the instant noodles are directly opened with 200 mL of boiled
(§7) water to ensure that the noodles are eaten and the water or soup is drunk]. Visit days when MTT test is performed: 1 day prior to Cycle 1 administration, Day 80 (D80). […]
(§8) ● Test by central laboratory

[5] = test system: Chinese patients with T2D; test: Mixed-meal tolerance test (MTT): plasma glucose and glucose AUC0-4 h; conditions: for Percent change from baseline to week 12 in post-MTT glucose AUC0-4 h, LS mean: MMRM
Method: as §2
Standard non-compartmental pharmacokinetics methods were used to analyze IBI362 plasma concentration data using Pkanalix 2020R1 (Lixoft, Antony, France). Secondary efficacy outcomes included change from baseline to week 12 in HbA1c, fasting plasma glucose (FPG), fasting insulin levels, change from baseline to week 12 in post-mixed-meal tolerance test (post-MTT) glucose, insulin, C peptide, GLP-1 and OXM levels, as well as seven-point self-measured blood glucose (SMBG) profile.
The analyses for change from baseline in HbA1c, FPG, post-MTT glucose AUC0–4 h and body weight were performed using the mixed-effect model for repeated measures (MMRM) with least-squares means and standard error provided. The MMRM included the corresponding baseline value, treatment, visit and treatment-by-visit as fixed effects and patient as a random effect. Mean change or mean percent change from baseline were analysed using a restricted maximum likelihood (REML)‐based repeated measures approach in combination with the Newton Raphson Algorithm. The fix effect of visit was fitted as a repeated effect and an unstructured covariance matrix was used. In case of non-converge, matrix like Variance Components and Compound Symmetry will be tested in a subsequent order until model‐convergence is achieved. The Kenward-Roger degree of freedom was used in estimating fixed effects. No missing data imputation was conducted. For HbA1c, FPG and body weight, point estimate of treatment difference versus placebo and 90% CI were provided for each IBI362 dose group and the dulaglutide group, with nominal p values. […]
as §3, §4, §5, §6, §7, §8

[6] = test system: Chinese patients with T2D; test: Alanine aminotransferase and aspartate aminotransferase levels
Description: Primary outcomes of the study were the safety and tolerability of IBI362. Safety assessment included adverse events, physical examinations, laboratory tests (including lipase, amylase and calcitonin level measures), vital signs and 12-lead electrocardiogram. Adverse events were categorized according to the Medical Dictionary for Regulatory Activities system organ classes (SOCs) and preferred terms. Treatment-emergent adverse events (TEAEs) were monitored from the time of informed consent to the safety follow-up period. The severity of TEAEs (mild, moderate or severe) and the association between an event and the study drug were assessed by investigators based on pre-specified criteria.
CFB in ALT (U/L), mean (SD)
CFB in AST (U/L), mean (SD)
Fig. S2: Change from baseline in ALT and AST levels over time.
a. CFB in ALT levels over time. b. CFB in AST levels over time. Data are plotted as means +/- SD.
ALT = alanine aminotransferase; AST = aspartate aminotransferase; CFB = change from baseline;
SD = standard deviation. Source data are provided as a Source Data file. […]

[7] = week 12, 0 min, 3.0 mg cohort, n=7
[8] = week 12, 0 min, 4.5 mg cohort, n=5
[9] = week 12, 0 min, 6.0 mg cohort, n=8
[10] = week 12, 30 min, 3.0 mg cohort, n=7
[11] = week 12, 30 min, 4.5 mg cohort, n=5
[12] = week 12, 30 min, 6.0 mg cohort, n=8
[13] = week 12, 60 min, 3.0 mg cohort, n=7
[14] = week 12, 60 min, 4.5 mg cohort, n=5
[15] = week 12, 60 min, 6.0 mg cohort, n=8
[16] = week 12, 120 min, 3.0 mg cohort, n=7
[17] = week 12, 120 min, 4.5 mg cohort, n=5
[18] = week 12, 120 min, 6.0 mg cohort, n=8
[19] = week 12, 180 min, 3.0 mg cohort, n=7
[20] = week 12, 180 min, 4.5 mg cohort, n=5
[21] = week 12, 180 min, 6.0 mg cohort, n=8
[22] = week 12, 240 min, 3.0 mg cohort, n=7
[23] = week 12, 240 min, 4.5 mg cohort, n=5
[24] = week 12, 240 min, 6.0 mg cohort, n=8

## CC(C)C[C@H](NC(=O)[C@H](CC(C)C)NC(=O)[C@H](Cc1c[nH]c2ccccc12)NC(=O)[C@H](CCC(=O)O)NC(=O)[C@@H](NC(=O)[C@H](Cc1ccccc1)NC(=O)[C@H](CCC(=O)O)NC(=O)[C@H](CCCCNC(=O)COCCOCCNC(=O)COCCOCCNC(=O)CC[C@H](NC(=O)CCCCCCCCCCCCCCCCCCC(=O)O)C(=O)O)NC(=O)[C@H](C)NC(=O)[C@H](CCCCN)NC(=O)[C@H](CCCCN)NC(=O)[C@H](CCC(=O)O)NC(=O)[C@H](CC(=O)O)NC(=O)[C@H](CC(C)C)NC(=O)[C@H](Cc1ccc(O)cc1)NC(=O)[C@H](CCCCN)NC(=O)[C@H](CO)NC(=O)[C@H](Cc1ccc(O)cc1)NC(=O)[C@H](CC(=O)O)NC(=O)[C@H](CO)NC(=O)[C@@H](NC(=O)[C@H](Cc1ccccc1)NC(=O)[C@@H](NC(=O)CNC(=O)[C@H](CCC(N)=O)NC(=O)C(C)(C)NC(=O)[C@@H](N)Cc1c[nH]cn1)[C@@H](C)O)[C@@H](C)O)C(C)C)C(=O)N[C@@H](CCC(=O)O)C(=O)NCC(=O)NCC(=O)N1CCC[C@H]1C(=O)N[C@@H](CO)C(=O)N[C@@H](CO)C(=O)NCC(N)=O [IBI362]
[1]; IBI362 3.0 mg
  Change from baseline to week 12 in BMI: -0.38 kg/m2
[1]; IBI362 4.5 mg
  Change from baseline to week 12 in BMI: -1.25 kg/m2
[1]; IBI362 6.0 mg
  Change from baseline to week 12 in BMI: -1.36 kg/m2
[2]; 3.0 mg cohort, n=7
  Change from baseline to week 12 in waist circumference, mean: -0.5 cm
  Change from baseline to week 12 in waist circumference, individual: -4.4 cm and -0.2 cm and -4.0 cm and -1.0 cm and 3.7 cm and 3.5 cm
[2]; 4.5 mg cohort, n=5
  Change from baseline to week 12 in waist circumference, mean: -3.0 cm
  Change from baseline to week 12 in waist circumference, individual: -4.5 cm and -1.8 cm and -2.1 cm and -2.2 cm and -4.2 cm
[2]; 6.0 mg cohort, n=8
  Change from baseline to week 12 in waist circumference, individual: -4.7 cm and -2.5 cm and -1.0 cm and -7.5 cm and -5.1 cm and -13.3 cm and -1.5 cm and -2.9 cm
[3]; 3.0 mg cohort, n=7
  Change from baseline to week 12 in HOMA-IR, mean: -2.1
  Change from baseline to week 12 in HOMA-IR, individual: -4.8 and -1.3 and -2.3 and -1.2 and -2.4
[3]; 4.5 mg cohort, n=5
  Change from baseline to week 12 in HOMA-IR, mean: -1.5
  Change from baseline to week 12 in HOMA-IR, individual: -2.8 and -5.0 and -1.9 and 2.5 and -0.5
[3]; 6.0 mg cohort, n=8
  Change from baseline to week 12 in HOMA-IR, mean: -5.4
  Change from baseline to week 12 in HOMA-IR, individual: -1.9 and -5.3 and -0.4 and -4.2 and -1.1 and -1.0 and -22.2 and -7.0
[4]; [7]
  Insulin during MTT, mean: 9.22 μU/mL
[4]; [8]
  Insulin during MTT, mean: 13.41 μU/mL
[4]; [9]
  Insulin during MTT, mean: 13.25 μU/mL
[4]; [10]
  Insulin during MTT, mean: 17.47 μU/mL
[4]; [11]
  Insulin during MTT, mean: 22.16 μU/mL
[4]; [12]
  Insulin during MTT, mean: 22.08 μU/mL
[4]; [13]
  Insulin during MTT, mean: 34.23 μU/mL
[4]; [14]
  Insulin during MTT, mean: 41.02 μU/mL
[4]; [15]
  Insulin during MTT, mean: 41.49 μU/mL
[4]; [16]
  Insulin during MTT, mean: 57.20 μU/mL
[4]; [17]
  Insulin during MTT, mean: 45.65 μU/mL
[4]; [18]
  Insulin during MTT, mean: 64.69 μU/mL
[4]; [19]
  Insulin during MTT, mean: 39.93 μU/mL
[4]; [20]
  Insulin during MTT, mean: 50.30 μU/mL
[4]; [21]
  Insulin during MTT, mean: 46.96 μU/mL
[4]; [22]
  Insulin during MTT, mean: 23.01 μU/mL
[4]; [23]
  Insulin during MTT, mean: 25.01 μU/mL
[4]; [24]
  Insulin during MTT, mean: 24.25 μU/mL
[5]; 3.0 mg cohort, n=8
  Percent change from baseline to week 12 in post-MTT glucose AUC0-4 h, LS mean: −37.0% and -36.99%
[5]; 4.5 mg cohort, n=8
  Percent change from baseline to week 12 in post-MTT glucose AUC0-4 h, LS mean: −38.9% and -38.89%
[5]; 6.0 mg cohort, n=8
  Percent change from baseline to week 12 in post-MTT glucose AUC0-4 h, LS mean: −43.9% and -43.88%
[5]; [7]
  Glucose during MTT, mean: 7.91 mmol/L
[5]; [8]
  Glucose during MTT, mean: 7.75 mmol/L
[5]; [9]
  Glucose during MTT, mean: 7.11 mmol/L
[5]; [10]
  Glucose during MTT, mean: 10.06 mmol/L
[5]; [11]
  Glucose during MTT, mean: 9.84 mmol/L
[5]; [12]
  Glucose during MTT, mean: 9.53 mmol/L
[5]; [13]
  Glucose during MTT, mean: 13.39 mmol/L
[5]; [14]
  Glucose during MTT, mean: 11.82 mmol/L
[5]; [15]
  Glucose during MTT, mean: 11.83 mmol/L
[5]; [16]
  Glucose during MTT, mean: 11.24 mmol/L
[5]; [17]
  Glucose during MTT, mean: 10.28 mmol/L
[5]; [18]
  Glucose during MTT, mean: 9.52 mmol/L
[5]; [19]
  Glucose during MTT, mean: 8.73 mmol/L
[5]; [20]
  Glucose during MTT, mean: 8.34 mmol/L
[5]; [21]
  Glucose during MTT, mean: 7.51 mmol/L
[5]; [22]
  Glucose during MTT, mean: 7.23 mmol/L
[5]; [23]
  Glucose during MTT, mean: 7.08 mmol/L
[5]; [24]
  Glucose during MTT, mean: 6.63 mmol/L
[6]; week 4, 3.0 mg cohort
  Change from baseline in ALT, mean: 3.76 U/L
  Change from baseline in AST, mean: 1.13 U/L
[6]; week 4, 4.5 mg cohort
  Change from baseline in ALT, mean: -3.50 U/L
  Change from baseline in AST, mean: -2.03 U/L
[6]; week 4, 6.0 mg cohort
  Change from baseline in ALT, mean: -7.38 U/L
  Change from baseline in AST, mean: -2.56 U/L
[6]; week 8, 3.0 mg cohort
  Change from baseline in ALT, mean: -6.34 U/L
  Change from baseline in AST, mean: -1.20 U/L
[6]; week 8, 4.5 mg cohort
  Change from baseline in ALT, mean: -7.66 U/L
  Change from baseline in AST, mean: -1.26 U/L
[6]; week 8, 6.0 mg cohort
  Change from baseline in ALT, mean: -8.50 U/L
  Change from baseline in AST, mean: -3.36 U/L
[6]; week 12, 3.0 mg cohort
  Change from baseline in ALT, mean: -6.34 U/L
  Change from baseline in AST, mean: -2.49 U/L
[6]; week 12, 4.5 mg cohort
  Change from baseline in ALT, mean: -10.66 U/L
  Change from baseline in AST, mean: -2.82 U/L
[6]; week 12, 6.0 mg cohort
  Change from baseline in ALT, mean: -8.38 U/L
  Change from baseline in AST, mean: -4.65 U/L
